The values that follow come from patent US20130225694A1, “COMPOSITIONS AND METHODS OF INHIBITING RETINAL DEGENERATION” (Oklahoma Medical Research Foundation, priority 2012, published 2013).

As a reminder, the IC50 is the concentration at which inhibition is half-maximal.

This test deals with T1, RPE65 isomerohydrolase (Rattus norvegicus, UniProt O70276).
T1 construct: 50 μg microsomal proteins from the rat RPE were added into 200 μl of reaction buffer; from tissue; host or cells: rat eyecup/RPE microsomes
T1 sequence (O70276 1-533): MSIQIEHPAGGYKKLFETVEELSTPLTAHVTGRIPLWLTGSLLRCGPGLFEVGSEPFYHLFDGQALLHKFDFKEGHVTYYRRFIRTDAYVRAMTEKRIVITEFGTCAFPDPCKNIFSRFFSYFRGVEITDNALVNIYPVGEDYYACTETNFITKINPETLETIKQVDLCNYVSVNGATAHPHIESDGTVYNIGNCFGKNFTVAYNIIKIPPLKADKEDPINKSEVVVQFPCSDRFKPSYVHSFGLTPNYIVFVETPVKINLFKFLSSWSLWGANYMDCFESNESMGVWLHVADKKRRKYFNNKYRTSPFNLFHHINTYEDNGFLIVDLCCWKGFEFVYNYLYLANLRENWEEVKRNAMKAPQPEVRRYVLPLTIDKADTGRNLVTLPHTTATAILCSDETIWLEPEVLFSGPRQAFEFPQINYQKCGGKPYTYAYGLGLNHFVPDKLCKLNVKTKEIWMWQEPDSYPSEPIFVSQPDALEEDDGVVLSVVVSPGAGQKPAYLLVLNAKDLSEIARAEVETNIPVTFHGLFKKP
The test can be described thus: Isomerohydrolase activity assay with rat RPE microsomes (Example 2). Type of test: biochemical. On the procedure: Isomerohydrolase activity assay and PBN inhibition—Rats were sacrificed, and eyes were enucleated and dissected to remove the anterior part including lens, vitreous, and retina. The remaining eyecups containing RPE were sonicated 3 times for 20 seconds in a cold 0.32 M sucrose/0.1 M sodium phosphate buffer (pH 7.4). The homogenate was centrifuged (20 minutes, 20,000 g) to sediment sclera, unbroken cells, nuclei and mitochondria. The obtained supernatant was recentrifuged (1 hour, 100,000 g), and the microsomal pellet was resuspended in 10 mM 1,3-bis[tris(hydroxymethyl)-methylamino]propane (BTP), (pH 8.0) and 100 mM NaCl, and stored at −80° C. All-trans-[11,12-^3H]-retinol (1 mCi/ml, 45.5 Ci/mmol, American Radiolabeled Chemical, Inc., St. Louis, Mo.) in N,N-dimethyl formamide was used as the substrate for the isomerohydrolase assay. […] The upper layer was collected, and the generated retinoids were analyzed by normal phase HPLC as described (38). […] The isomerohydrolase activity was calculated from the area of the 11-cis-retinol peak using Radiomatic 610TR software (Perkin Elmer, Boston, Mass.) with synthetic 11-cis-[^3H]-retinol as a standard. […] The inhibition constant for PBN was calculated from the following equation: […] where [I]=concentration of PBN, Vm^i=maximal velocity in the presence of Vm=maximal velocity in the absence of PBN. […]

Regarding `CC(C)(C)/[N+]([O-])=C/c1ccccc1` [Compound 1, α-phenyl-N-tert-butyl nitrone], the “inhibition of 11-cis-retinol generation” value (1 mM PBN) was “almost complete inhibition”. Besides, the IC50 (rat RPE microsomes, 0.2 μM all-trans-[3H]-retinol, 1 h 37° C., read-out: apparent IC50 of isomerohydrolase activity) was 100 µM.
